Article PMC9032380, “Functional exploration of the glycoside hydrolase family GH113” (PLoS ONE, 2022)

Assays:
Assay in all cases: HPAEC-PAD of hydrolysis products
Format in all cases: biochemical
EDP22100 = target: T1, EDP22100 (Faecalibacterium prausnitzii, UniProt A8S9T0); conditions: 100 uM M6, 10 mM phosphate pH 7.5, 25 C; reaction time course
T1 construct: gene FAEPRAM212_01134; predicted GH113 catalytic domain; no signal peptide predicted; N-terminal His6 tag (pHTP1), E. coli BL21(DE3); codon-optimised synthetic gene
T1 sequence (A8S9T0 1-309): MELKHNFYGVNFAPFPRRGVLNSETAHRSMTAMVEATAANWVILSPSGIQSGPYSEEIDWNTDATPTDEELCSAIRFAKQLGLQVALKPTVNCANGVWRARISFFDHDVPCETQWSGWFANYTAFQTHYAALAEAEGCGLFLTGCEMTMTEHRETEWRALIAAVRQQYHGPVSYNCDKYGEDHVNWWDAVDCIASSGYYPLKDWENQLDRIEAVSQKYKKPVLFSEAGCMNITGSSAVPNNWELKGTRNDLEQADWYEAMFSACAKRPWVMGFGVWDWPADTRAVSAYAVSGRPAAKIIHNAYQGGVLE

AGY82530 = target: T2, AGY82530 (Carnobacterium inhibens, UniProt A0ABR7TC15); conditions: […] M6, […] phosphate pH […] C; overnight incubation
T2 construct: gene GLO26_06385; predicted GH113 catalytic domain; no signal peptide predicted; N-terminal His6 tag (pHTP1), E. coli BL21(DE3); codon-optimised synthetic gene
T2 sequence (A0ABR7TC15 1-309): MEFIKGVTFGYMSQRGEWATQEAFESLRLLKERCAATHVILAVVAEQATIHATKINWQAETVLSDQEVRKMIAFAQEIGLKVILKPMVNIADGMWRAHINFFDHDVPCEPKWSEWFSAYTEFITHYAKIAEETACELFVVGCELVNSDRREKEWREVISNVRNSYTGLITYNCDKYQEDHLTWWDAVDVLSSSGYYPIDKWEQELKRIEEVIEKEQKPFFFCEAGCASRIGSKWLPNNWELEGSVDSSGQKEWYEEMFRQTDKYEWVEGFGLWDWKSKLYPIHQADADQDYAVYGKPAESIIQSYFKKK

AIQ46016 = target: T3, AIQ46016 (Paenibacillus sp. FSL R7-0273, UniProt A0A089KA84); conditions: […] M6, […] phosphate pH […] C; overnight incubation
T3 construct: gene R70723_09070; predicted GH113 catalytic domain; no signal peptide predicted; N-terminal His6 tag (pHTP1), E. coli BL21(DE3); codon-optimised synthetic gene
T3 sequence (A0A089KA84 1-318): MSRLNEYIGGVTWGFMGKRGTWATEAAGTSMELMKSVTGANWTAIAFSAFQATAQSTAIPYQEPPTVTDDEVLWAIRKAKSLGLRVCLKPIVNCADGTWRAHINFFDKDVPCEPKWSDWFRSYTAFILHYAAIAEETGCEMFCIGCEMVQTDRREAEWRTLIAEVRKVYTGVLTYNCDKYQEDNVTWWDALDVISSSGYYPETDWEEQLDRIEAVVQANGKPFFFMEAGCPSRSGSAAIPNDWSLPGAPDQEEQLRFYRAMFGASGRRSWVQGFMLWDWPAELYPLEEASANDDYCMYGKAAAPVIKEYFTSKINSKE

## OC[C@H]1O[C@@H](O[C@H]2[C@H](O)[C@H](O)[C@H](O[C@H]3[C@H](O)[C@H](O)[C@H](O[C@H]4[C@H](O)[C@H](O)[C@H](O[C@H]5[C@H](O)[C@H](O)[C@H](O[C@H]6[C@H](O)[C@H](O)C(O)O[C@@H]6CO)O[C@@H]5CO)O[C@@H]4CO)O[C@@H]3CO)O[C@@H]2CO)[C@@H](O)[C@@H](O)[C@@H]1O (stereo partly drawn) [M6, mannohexaose]
EDP22100
  HPAEC-PAD of hydrolysis products: confirming the release of mannose from mannohexaose (M6)
AGY82530
  HPAEC-PAD of hydrolysis products: end-products released by AGY82530, AGF59019, AIQ46016 and AIQ63165 after overnight incubation with M6
AIQ46016
  HPAEC-PAD of hydrolysis products: end-products released by AGY82530, AGF59019, AIQ46016 and AIQ63165 after overnight incubation with M6
